# Test results: the supplement of paper PMC10331698
# ± gives the standard deviation of the averaged measurements.
# Legend:
# Experiment in all cases: level (log10 ratio to DMSO vehicle control); higher = higher biomarker level / cell amount than vehicle control
# [1] = compound: FC(F)(F)C(F)(F)C(F)(F)C(F)(F)CCI [1H,1H,2H,2H-Perfluorohexyl iodide]; settings: in DMSO
# Protocol: (§1)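 BioMAP Diversity Plus panel of 12 human primary cell co-culture systems (3C, 4H, LPS, SAg, BT, BF4T, BE3C, CASM3C, HDF3CGF, KF3CT, MyoF, Mphg). Compounds were added 1 h before stimulation and left for 24 h (MyoF 48 h; BT 72 h for soluble read-outs or 6 d for IgG). Biomarkers were read by ELISA, cytotoxicity by SRB, PBMC viability and proliferation by Alamar Blue. Each well value was divided by the mean of 8 DMSO control wells on the same plate and log10 transformed; duplicate blinded samples were tested at 4 concentrations.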
# [2] = compound: FC(F)(F)COC(OCC(F)(F)F)OCC(F)(F)F [tris(Trifluoroethoxy)methane]; settings: in DMSO
# Protocol: as §1
# [3] = compound: Cc1ccc(S(=O)(=O)OCC(F)(F)C(F)(F)C(F)(F)C(F)(F)C(F)(F)C(F)F)cc1 [1H,1H,7H-Perfluoroheptyl 4-methylbenzenesulfonate]; settings: in DMSO
# Protocol: as §1
# Perfluorooctanoic acid = compound: O=C(O)C(F)(F)C(F)(F)C(F)(F)C(F)(F)C(F)(F)C(F)(F)C(F)(F)F [Perfluorooctanoic acid]; settings: in DMSO
# Protocol: as §1
# [4] = compound: C=C(C)C(=O)OCC(F)(F)C(F)(F)C(F)(F)F [2,2,3,3,4,4,4-Heptafluorobutyl methacrylate]; settings: in DMSO
# Protocol: as §1
# [5] = compound: C=CC(=O)OCC(F)(F)C(F)(F)C(F)(F)C(F)(F)COC(=O)C=C [1H,1H,6H,6H-Perfluorohexane-1,6-diol diacrylate]; settings: 6700 nM; in DMSO
# Protocol: as §1
# [6] = compound: OCCC(F)(F)C(F)(F)C(F)(F)C(F)(F)C(F)(F)C(F)(F)C(F)(F)C(F)(F)F [8:2 Fluorotelomer alcohol]; settings: 6700 nM; in DMSO
# Protocol: as §1
# [7] = compound: C=CC(=O)OCC(F)(F)C(F)(F)C(F)(F)C(F)(F)C(F)(F)C(F)(F)C(F)(F)C(F)F [1H,1H,9H-Perfluorononyl acrylate]; settings: in DMSO
# Protocol: as §1
Test System,level (log10) ([1]; 6700 nM),level (log10) ([1]; 20000 nM),level (log10) ([1]; 60000 nM),level (log10) ([2]; 6700 nM),level (log10) ([2]; 20000 nM),level (log10) ([2]; 60000 nM),level (log10) ([3]; 6700 nM),level (log10) ([3]; 20000 nM),level (log10) ([3]; 60000 nM),level (log10) (Perfluorooctanoic acid; 6700 nM),level (log10) (Perfluorooctanoic acid; 20000 nM),level (log10) (Perfluorooctanoic acid; 60000 nM),level (log10) ([4]; 6700 nM),level (log10) ([4]; 20000 nM),level (log10) ([4]; 60000 nM),level (log10) [5],level (log10) [6],level (log10) ([7]; 6700 nM),level (log10) ([7]; 20000 nM),level (log10) ([7]; 60000 nM)
LPS:CD62E/E-Selectin,0.0035 ± 0.022,-0.0105 ± 0.018,-0.0095 ± 0.012,-0.009 ± 0.033,-0.005,-0.009 ± 0.0071,0.001 ± 0.0057,0.012 ± 0.027,0.0375 ± 0.0078,0.009 ± 0.017,-0.01 ± 0.02,0.029 ± 0.016,0.001 ± 0.0071,0.0075 ± 0.026,-0.0015 ± 0.0035,-0.0155 ± 0.0035,0.012 ± 0.018,-0.002 ± 0.027,0.0165 ± 0.026,-0.008
LPS:CD142/Tissue Factor,0.0165 ± 0.0035,0.0275 ± 0.018,0.055 ± 0.051,-0.013 ± 0.011,-0.02 ± 0.027,-0.0085 ± 0.06,-0.0355 ± 0.11,-0.022 ± 0.065,0.161 ± 0.039,0.0445 ± 0.056,0.008 ± 0.089,0.042 ± 0.017,-0.0225 ± 0.026,-0.013 ± 0.025,0.02 ± 0.0057,-0.0415 ± 0.00071,-0.0205 ± 0.1,0.019 ± 0.025,0.0415 ± 0.026,-0.015 ± 0.013
LPS:CD106/VCAM-1,0.01,-0.0195 ± 0.005,-0.026 ± 0.016,-0.025 ± 0.027,0.011 ± 0.013,0.002 ± 0.037,0.01 ± 0.0071,0.006 ± 0.0014,0.025 ± 0.011,0.0085 ± 0.0021,-0.006 ± 0.013,-0.0165 ± 0.0035,-0.0175 ± 0.013,-0.018 ± 0.0085,-0.02 ± 0.0085,-0.048 ± 0.0099,-0.0785 ± 0.042,-0.002 ± 0.011,-0.0365 ± 0.019,-0.0565 ± 0.0021
4H:CD106/VCAM-1,0.0045 ± 0.0021,-0.0125 ± 0.0092,-0.0525 ± 0.011,-0.0145 ± 0.0035,-0.0025 ± 0.0078,-0.009 ± 0.0071,-0.0065 ± 0.0078,-0.032 ± 0.013,-0.0295 ± 0.011,0.0045 ± 0.022,-0.001 ± 0.034,-0.0165 ± 0.039,0.012 ± 0.04,0.019 ± 0.028,0.02 ± 0.025,-0.057 ± 0.0057,-0.008 ± 0.013,-0.02 ± 0.0071,-0.023 ± 0.0028,-0.0425 ± 0.03
BE3C:CD54/ICAM-1,0.0035 ± 0.0035,0.004 ± 0.013,0.0105 ± 0.011,0.016 ± 0.027,0.006 ± 0.0099,0.0075 ± 0.0092,0.014 ± 0.0057,-0.023 ± 0.02,-0.012 ± 0.0014,-0.02 ± 0.0085,-0.0085 ± 0.0035,0.0235 ± 0.039,0.009 ± 0.023,-0.004 ± 0.034,0.005 ± 0.0014,-0.021 ± 0.024,0.001 ± 0.0099,-0.01 ± 0.0042,-0.0095 ± 0.013,-0.0165 ± 0.011
LPS:CD40,0.0065 ± 0.0021,-0.019 ± 0.02,-0.0095 ± 0.025,-0.0235 ± 0.023,-0.0275 ± 0.0092,-0.013 ± 0.027,-0.0185 ± 0.066,0.0215 ± 0.054,0.129 ± 0.061,0.006 ± 0.025,-0.032 ± 0.057,-0.0815 ± 0.022,0.0015 ± 0.037,0.024 ± 0.034,0.0525 ± 0.012,-0.1475 ± 0.00071,-0.068 ± 0.014,-0.001 ± 0.05,-0.0785 ± 0.029,-0.181 ± 0.064
4H:VEGFR2,-0.029 ± 0.065,-0.058,-0.0605 ± 0.043,-0.0045 ± 0.023,0.006 ± 0.017,0.006 ± 0.021,0.005 ± 0.018,0.017 ± 0.011,0.01,0.019 ± 0.0099,0.0055 ± 0.042,0.0205 ± 0.033,-0.0065 ± 0.03,0.01,0.0085 ± 0.0021,-0.0605 ± 0.00071,0.0185 ± 0.0064,-0.018 ± 0.014,-0.009 ± 0.057,0.0045 ± 0.03
